Data as given in US8952024B2, “Herbicidal pyrimidone derivatives” (E I du Pont de Nemours and Company, priority 2009, dated 2015).

Key:
Type in all cases: in vivo
[1] = test system: dallisgrass (Paspalum dilatatum); assay: Test D pre-/postemergence plant response
From the text: (§1) Seeds of plant species selected from bermudagrass (Cynodon dactylon), Surinam grass (Brachiaria decumbens), large crabgrass (Digitaria sanguinalis), green foxtail (Setaria viridis), goosegrass (Eleusine indica), johnsongrass (Sorghum halepense), kochia (Kochia scoparia), morningglory (pitted morningglory, Ipomoea lacunosa), nutsedge (purple nutsedge, Cyperus rotundus), ragweed (common ragweed, Ambrosia elatior), black mustard (Brassica nigra), guineagrass (Panicum maximum), dallisgrass (Paspalum dilatatum), barnyardgrass (Echinochloa crus-galli), sandbur (southern sandbur, Cenchrus echinatus), sowthistle (common sowthistle, Sonchus oleraceous), prickly sida (Sida spinosa), Italian ryegrass (Lolium multiflorum), purslane (common purslane, Portulaca oleracea), signalgrass (broadleaf signalgrass, Brachiaria platyphylla), groundsel (common groundsel, Senecio vulgaris), chickweed (common chickweed, Stellaria media), dayflower (Virginia (VA) dayflower, Commelina virginica), bluegrass (annual bluegrass, Poa annua), naked crabgrass (Digitaria nuda), itchgrass (Rottboellia cochinchinensis), quackgrass (Elytrigia repens), field bindweed (Convolvulus arvensis), spanishneedles (Bidens bipinnata), mallow (common mallow, Malva sylvestris) and Russian thistle (Salsola kali), were planted into a blend of loam soil and sand and treated preemergence with test chemicals formulated in a non-phytotoxic solvent mixture which included a surfactant. At the same time, plants from these weed species were treated with postemergence applications of the test chemicals formulated in the same manner. Plants ranged in height from 2 to 18 cm (1- to 4-leaf stage) for postemergence treatments.
(§2) Treated plants and controls were maintained in a greenhouse for 14 to 21 days, after which time all species were visually evaluated and compared to controls. Plant response ratings, summarized in Table D, are based on a scale of 0 to 100 where 0 is no effect and 100 is complete control. A dash (-) response means no test result.

[2] = test system: large crabgrass (Digitaria sanguinalis); assay: Test D pre-/postemergence plant response
From the text: as §1, §2

[3] = test system: ragweed (common ragweed, Ambrosia elatior); assay: Test D pre-/postemergence plant response
From the text: as §1, §2

[4] = test system: sandbur (southern sandbur, Cenchrus echinatus); assay: Test D pre-/postemergence plant response
From the text: as §1, §2

[5] = test system: groundsel (common groundsel, Senecio vulgaris); assay: Test D pre-/postemergence plant response; details: Postemergence
From the text: as §1, §2

[6] = test system: quackgrass (Elytrigia repens); assay: Test D pre-/postemergence plant response
From the text: as §1, §2

[7] = test system: barnyardgrass (Echinochloa crus-galli); assay: Test D pre-/postemergence plant response
From the text: as §1, §2

[8] = test system: johnsongrass (Sorghum halepense); assay: Test D pre-/postemergence plant response
From the text: as §1, §2

wild oat (Avena fatua) = assay: Test B pre-/postemergence plant response; details: for Oat, Wild plant response rating: 0 to 100 scale
In short: (§3)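 Visual injury, 0–100 scale (100 = complete control), rated against controls after 13 to 15 days in greenhouse. Pre-emergence: seeds in loam/sand soil, treated at planting. Post-emergence: 1- to 4-leaf plants (2 to 18 cm) in peat/vermiculite medium. Compounds formulated in non-phytotoxic solvent with surfactant.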

[9] = test system: galium (catchweed bedstraw, Galium aparine); assay: Test B pre-/postemergence plant response; details: Preemergence; for Galium plant response rating: 250 g ai/ha, 0 to 100 scale
In short: as §3

[10] = test system: sunflower (common oilseed sunflower, Helianthus annuus); assay: Test B pre-/postemergence plant response; details: Preemergence; for Sunflower plant response rating: 250 g ai/ha, 0 to 100 scale
In short: as §3

[11] = test system: nightshade (eastern black nightshade, Solanum ptycanthum); assay: Test B pre-/postemergence plant response; details: Preemergence; for Nightshade plant response rating: 250 g ai/ha, 0 to 100 scale
In short: as §3

[12] = Postemergence, 31 g ai/ha, scale 0 to 100
[13] = Postemergence, 62 g ai/ha, scale 0 to 100 (0 no effect, 100 complete control)
[14] = Postemergence, 125 g ai/ha, scale 0 to 100 (0 no effect, 100 complete control)
[15] = Postemergence, 16 g ai/ha, scale 0 to 100
[16] = Preemergence, 16 g ai/ha, scale 0 to 100, 0 no effect, 100 complete control
[17] = Preemergence, 31 g ai/ha, scale 0 to 100 (0 no effect, 100 complete control)
[18] = Preemergence, 62 g ai/ha, scale 0 to 100
[19] = Preemergence, 125 g ai/ha, scale 0 to 100
[20] = 62 g ai/ha, scale 0 to 100 (0 no effect, 100 complete control)
[21] = 125 g ai/ha, scale 0 to 100 (0 no effect, 100 complete control)
[22] = Postemergence, 31 g ai/ha, scale 0 to 100 (0 no effect, 100 complete control)
[23] = Postemergence, 31 g ai/ha, 0 to 100 scale (0 no effect, 100 complete control)
[24] = Postemergence, 250 g ai/ha, scale 0 to 100 (0 no effect, 100 complete control), 13 to 15 days
[25] = Preemergence, 62 g ai/ha, scale 0 to 100 (0 no effect, 100 complete control)
[26] = Preemergence, 125 g ai/ha, scale 0 to 100, 0 no effect, 100 complete control
[27] = 31 g ai/ha, scale 0 to 100 (0 no effect, 100 complete control)
[28] = 125 g ai/ha, scale 0 to 100, 0 no effect, 100 complete control

For `COCCn1c(-c2ccccc2)ncc(C(=O)C2=C(O)CCCC2=O)c1=O` [Compound 85], the “Plant response rating, Dallisgrass” value [1, 12] was 25, the “Plant response rating, Dallisgrass” value [1, 13] was 65 and the “Plant response rating, Dallisgrass” value [1, 14] was 80. The “Plant response rating, Dallisgrass” value [1, 15] was 15, the “Plant response rating, Dallisgrass” value [1, 16] was 50 and the “Plant response rating, Dallisgrass” value [1, 17] was 80. For the same compound, the “Plant response rating, Dallisgrass” value [1, 18] was 95, the “Plant response rating, Dallisgrass” value [1, 19] was 98 and the “Plant response rating, Crabgrass, Large” value [2, 12] was 60. For the same compound, the “Plant response rating, Crabgrass, Large” value [2, 13] was 75, the “Plant response rating, Crabgrass, Large” value [2, 14] was 75 and the “Plant response rating, Crabgrass, Large” value [2, 15] was 60. For the same compound, the “Plant response rating, Crabgrass, Large” value [2, 16] was 95, the “Plant response rating, Crabgrass, Large” value [2, 17] was 98 and the “Plant response rating, Crabgrass, Large” value [2, 18] was 100. The “Plant response rating, Crabgrass, Large” value [2, 19] was 100, the “Plant response rating, Ragweed” value [3, 12] was 80 and the “Plant response rating, Ragweed” value [3, 13] was 80. For the same compound, the “Plant response rating, Ragweed” value [3, 14] was 100, the “Plant response rating, Ragweed” value [3, 15] was 80 and the “Plant response rating, Ragweed” value [3, 16] was 90. The “Plant response rating, Ragweed” value [3, 17] was 95, the “Plant response rating, Ragweed” value [3, 19] was 100 and the “Plant response rating, Ragweed” value ([3]; Preemergence, rate not given, scale 0 to 100, 0 no effect, 100 complete control) was 100. The “Plant response rating, Sandbur” value [4, 12] was 50, the “Plant response rating, Sandbur” value [4, 13] was 65 and the “Plant response rating, Sandbur” value [4, 14] was 95. The “Plant response rating, Sandbur” value [4, 15] was 10, the “Plant response rating, Sandbur” value [4, 16] was 5 and the “Plant response rating, Sandbur” value [4, 17] was 5. For the same compound, the “Plant response rating, Sandbur” value [4, 19] was 98, the “Plant response rating, Groundsel” value ([5]; 31 g ai/ha, scale 0 to 100) was 100 and the “Plant response rating, Groundsel” value [5, 20] was 100. The “Plant response rating, Groundsel” value [5, 21] was 100, the “Plant response rating, Groundsel” value ([5]; 16 g ai/ha, scale 0 to 100) was 100 and the “Plant response rating, Quackgrass” value [6, 12] was 0. The “Plant response rating, Quackgrass” value [6, 13] was 15, the “Plant response rating, Quackgrass” value [6, 14] was 20 and the “Plant response rating, Quackgrass” value [6, 15] was 0. For the same compound, the “Plant response rating, Quackgrass” value [6, 16] was 0, the “Plant response rating, Quackgrass” value [6, 17] was 0 and the “Plant response rating, Quackgrass” value [6, 19] was 20. The “Plant response rating, Barnyardgrass” value [7, 22] was 50, the “Plant response rating, Barnyardgrass” value [7, 13] was 65 and the “Plant response rating, Barnyardgrass” value [7, 14] was 70. The “Plant response rating, Barnyardgrass” value [7, 15] was 30, the “Plant response rating, Barnyardgrass” value [7, 16] was 60 and the “Plant response rating, Barnyardgrass” value [7, 17] was 75. For the same compound, the “Plant response rating, Barnyardgrass” value [7, 18] was 95, the “Plant response rating, Barnyardgrass” value [7, 19] was 98 and the “Plant response rating, Johnsongrass” value [8, 12] was 50. For the same compound, the “Plant response rating, Johnsongrass” value [8, 13] was 80, the “Plant response rating, Johnsongrass” value [8, 14] was 80 and the “Plant response rating, Johnsongrass” value [8, 15] was 35. The “Plant response rating, Johnsongrass” value [8, 16] was 50, the “Plant response rating, Johnsongrass” value [8, 17] was 65 and the “Plant response rating, Johnsongrass” value [8, 18] was 80. The “Plant response rating, Johnsongrass” value [8, 19] was 95, the “Plant response rating, Oat, Wild” value (wild oat (Avena fatua); 31 g ai/ha, postemergence, scale 0 to 100, 0 is no effect, 100 is complete control) was 5 and the “Oat, Wild plant response rating (0 to 100 scale)” value (wild oat (Avena fatua); 62 g ai/ha, postemergence, 0 is no effect, 100 is complete control, 13 to 15 days) was 25. The “Plant response rating, Oat, Wild” value (wild oat (Avena fatua); Postemergence, 250 g ai/ha, scale 0 to 100 (0 no effect, 100 complete control)) was 60.

In the case of `CCc1ccc(-n2c(-c3ccccc3)ncc(C(=O)C3=C(O)CCCC3=O)c2=O)cc1` [Compound 219], the “Plant response rating, Oat, Wild” value (wild oat (Avena fatua); [23]) is reported as 50, the “Plant response rating, Oat, Wild” value (wild oat (Avena fatua); [13]) is reported as 70 and the “Plant response rating, Oat, Wild” value (wild oat (Avena fatua); [24]) is reported as 85. The “Plant response rating, Oat, Wild” value (wild oat (Avena fatua); [17]) was 0, the “Plant response rating, Oat, Wild” value (wild oat (Avena fatua); [25]) was 0 and the “Plant response rating, Oat, Wild” value (wild oat (Avena fatua); [26]) was 5. For the same compound, the “Oat, Wild plant response rating” value (wild oat (Avena fatua); Preemergence, 250 g ai/ha) was 40, the “Plant response rating, Galium” value [9, 27] was 75 and the “Plant response rating, Galium” value [9, 20] was 85. The “Plant response rating, Galium” value [9, 28] was 98, the “Galium plant response rating” value [9] was 100 and the “Plant response rating, Sunflower” value [10, 27] was 0. For the same compound, the “Plant response rating, Sunflower” value [10, 20] was 45, the “Plant response rating, Sunflower” value [10, 28] was 80 and the “Sunflower plant response rating” value [10] was 85. For the same compound, the “Plant response rating, Nightshade” value [11, 27] was 90, the “Plant response rating, Nightshade” value [11, 20] was 98 and the “Plant response rating, Nightshade” value [11, 28] was 100. For the same compound, the “Nightshade plant response rating” value [11] was 100.

In the case of `COCCn1c(-c2ccsc2)ncc(C(=O)C2=C(O)C3CCC(C3)C2=O)c1=O` (stereo not shown) [Compound 228], the “Plant response rating, Dallisgrass” value [1, 14] is reported as 5, the “Plant response rating, Crabgrass, Large” value [2, 14] is reported as 75 and the “Plant response rating, Ragweed” value [3, 14] is reported as 75. The “Plant response rating, Sandbur” value [4, 14] was 5, the “Plant response rating, Groundsel” value [5, 21] was 100 and the “Plant response rating, Quackgrass” value [6, 14] was 5. The “Plant response rating, Barnyardgrass” value [7, 22] was 20, the “Plant response rating, Barnyardgrass” value [7, 14] was 80 and the “Plant response rating, Johnsongrass” value [8, 14] was 70. The “Plant response rating, Oat, Wild” value (wild oat (Avena fatua); [23]) was 0, the “Plant response rating, Oat, Wild” value (wild oat (Avena fatua); [13]) was 5 and the “Plant response rating, Oat, Wild” value (wild oat (Avena fatua); [24]) was 40.

For `CCc1ccccc1-n1c(-c2ccccc2)ncc(C(=O)C2=C(O)CCCC2=O)c1=O` [Compound 255], the “Plant response rating, Oat, Wild” value (wild oat (Avena fatua); [23]) was 65, the “Plant response rating, Oat, Wild” value (wild oat (Avena fatua); [13]) was 80 and the “Plant response rating, Oat, Wild” value (wild oat (Avena fatua); Postemergence, 125 g ai/ha, scale 0 (no effect) to 100 (complete control), 13 to 15 days) was 85. For the same compound, the “Plant response rating, Oat, Wild” value (wild oat (Avena fatua); [24]) was 90, the “Plant response rating, Oat, Wild” value (wild oat (Avena fatua); [17]) was 0 and the “Plant response rating, Oat, Wild” value (wild oat (Avena fatua); [25]) was 0. For the same compound, the “Plant response rating, Oat, Wild” value (wild oat (Avena fatua); [26]) was 60, the “Oat, Wild plant response rating” value (wild oat (Avena fatua); Preemergence, 250 g ai/ha) was 90 and the “Plant response rating, Galium” value [9, 27] was 0. For the same compound, the “Plant response rating, Galium” value [9, 20] was 50, the “Plant response rating, Galium” value [9, 28] was 60 and the “Galium plant response rating” value [9] was 100. The “Plant response rating, Sunflower” value [10, 27] was 45, the “Plant response rating, Sunflower” value [10, 20] was 60 and the “Plant response rating, Sunflower” value [10, 28] was 75. For the same compound, the “Sunflower plant response rating” value [10] was 90, the “Plant response rating, Nightshade” value [11, 27] was 75 and the “Plant response rating, Nightshade” value [11, 20] was 90. The “Plant response rating, Nightshade” value [11, 28] was 100 and the “Nightshade plant response rating” value [11] was 100.
